Data as given in US8114882B2, “(1H-indol-7-yl)-(pyrimidin-2-ylamino)methanone derivatives and related compounds as IGF-R1 inhibitors for the treatment of cancer” (Merck Patent GmbH, priority 2005, dated 2012).

The compounds below were run against T1, IGF-1R (Homo sapiens, UniProt P08069) (assay: Inhibition of IGF-1R (IC50): IGF1-stimulated IGF1R autophosphorylation in human tumour cells, Capture-ELISA or LUMINEX). Conditions: Table 1; human tumour cells expressing IGF1R (for example MCF-7 or Calu-6), 45 min pre-treatment, 5 min IGF1 stimulation.
T1 construct: Cultivated human tumour cells which express the IGF1 receptor (IGF1R); endogenous in cells
Type: cell-based
Experimental: Cultivated human tumour cells which express the IGF1 receptor (IGF1R) (for example MCF-7 or Calu-6) are stimulated using human IGF1, the natural ligand of IGF1R. The stimulation induces autophosphorylation of tyrosine residues in the cytoplasmatic IGF1R domain, which triggers signal transduction cascades, which result in apoptosis inhibition and cell proliferation.
The amount of phosphorylated IGF1R is determined by a receptor-specific Capture-ELISA or an analogous LUMINEX assay. The IGF1R from cell lysates is bound to a 96-well ELISA plate or LUMINEX beads (“capturing”) by means of a specific antibody, and the tyrosine phosphorylation is detected using a biotin-labelled anti-phosphotyrosine antibody and a streptavidin peroxidase conjugate by a chemoluminescence method or by means of a fluorescence-labelled anti-phosphotyrosine antibody.
In order to determine the activity of kinase inhibitors, cells are pre-treated with increasing concentrations of these compounds for 45 min and subsequently stimulated using IGF1 for 5 min. As internal control, the biological activity of the ligand IGF1 is checked and a concentration series of an IGF1R reference inhibitor measured.

T1 sequence (P08069 31-1367): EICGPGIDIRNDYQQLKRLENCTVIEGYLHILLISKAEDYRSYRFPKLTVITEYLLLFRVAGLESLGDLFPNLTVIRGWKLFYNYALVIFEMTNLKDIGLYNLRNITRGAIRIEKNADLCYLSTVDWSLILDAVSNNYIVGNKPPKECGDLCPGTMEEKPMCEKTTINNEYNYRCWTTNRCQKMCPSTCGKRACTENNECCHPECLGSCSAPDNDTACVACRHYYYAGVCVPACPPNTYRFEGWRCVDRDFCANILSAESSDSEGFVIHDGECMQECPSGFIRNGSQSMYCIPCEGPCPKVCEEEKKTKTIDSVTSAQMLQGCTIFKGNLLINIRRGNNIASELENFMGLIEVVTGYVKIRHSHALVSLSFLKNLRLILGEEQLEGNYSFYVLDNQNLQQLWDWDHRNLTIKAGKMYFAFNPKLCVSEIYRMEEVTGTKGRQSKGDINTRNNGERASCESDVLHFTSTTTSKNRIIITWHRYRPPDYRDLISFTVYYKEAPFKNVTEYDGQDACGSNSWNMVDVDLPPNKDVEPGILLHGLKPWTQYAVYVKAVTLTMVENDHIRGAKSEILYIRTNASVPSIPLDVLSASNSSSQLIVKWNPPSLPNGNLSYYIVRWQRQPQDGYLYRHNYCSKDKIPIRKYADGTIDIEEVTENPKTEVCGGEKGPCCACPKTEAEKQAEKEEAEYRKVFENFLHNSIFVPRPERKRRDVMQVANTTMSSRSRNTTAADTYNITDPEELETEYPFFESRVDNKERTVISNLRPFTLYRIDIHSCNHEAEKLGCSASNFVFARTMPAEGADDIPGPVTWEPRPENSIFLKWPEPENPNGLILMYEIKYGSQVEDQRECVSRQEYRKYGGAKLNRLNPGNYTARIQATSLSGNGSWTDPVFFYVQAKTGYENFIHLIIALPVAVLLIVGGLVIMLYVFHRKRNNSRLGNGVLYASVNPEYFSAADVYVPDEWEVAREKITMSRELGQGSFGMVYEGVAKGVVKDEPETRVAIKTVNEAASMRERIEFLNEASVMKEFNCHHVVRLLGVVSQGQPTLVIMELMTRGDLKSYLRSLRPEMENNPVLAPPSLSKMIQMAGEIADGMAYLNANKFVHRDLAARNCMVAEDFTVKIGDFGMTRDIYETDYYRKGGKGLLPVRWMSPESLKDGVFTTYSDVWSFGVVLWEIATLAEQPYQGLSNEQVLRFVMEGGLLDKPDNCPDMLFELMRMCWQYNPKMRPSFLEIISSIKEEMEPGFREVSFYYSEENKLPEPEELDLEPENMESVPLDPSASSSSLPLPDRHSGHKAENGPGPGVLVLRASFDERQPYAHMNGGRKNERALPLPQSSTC

IC50 [nM]	SMILES
2600	O=C(c1ccc(Nc2ccnc(Cl)n2)cc1)c1cccc2cc[nH]c12
3100	N#CCCNc1nccc(Nc2ccc(C(=O)c3cccc4cc[nH]c34)cc2)n1
1200	O=C(c1ccc(Nc2ccnc(NCC3CC(O)C3)n2)cc1)c1cccc2cc[nH]c12 (stereo not drawn)
150	O=C(c1ccc(Nc2ccnc(Nc3ncc[nH]3)n2)cc1)c1cccc2cc[nH]c12
2900	Cc1cc(Nc2nccc(Nc3ccc(C(=O)c4cccc5cc[nH]c45)cc3)n2)n[nH]1
15000	O=C(c1ccc(Nc2ccnc(Nc3cc(-c4ccco4)[nH]n3)n2)cc1)c1cccc2cc[nH]c12
12000	CC(C)(C)c1cc(Nc2nccc(Nc3ccc(C(=O)c4cccc5cc[nH]c45)cc3)n2)n[nH]1
2400	O=C(c1ccc(Nc2ccnc(Nc3cc[nH]n3)n2)cc1)c1cccc2cc[nH]c12

The remaining lines, values behind:

SMILES	IC50 [nM]
O=C(c1ccc(Nc2ccnc(Cl)n2)cc1)c1cccc2c1NCC2	7850
O=C(c1ccc(Nc2nccc(NCc3cccnc3)n2)cc1)c1cccc2c1NCC2	2400
COc1cc(Nc2nccc(Nc3ccc(C(=O)c4cccc5cc[nH]c45)cc3)n2)cc(OC)c1OC	2200
O=C(c1ccc(Nc2ccnc(Nc3ccc(C(=O)c4cccc5cc[nH]c45)cc3)n2)cc1)c1cccc2cc[nH]c12	1800
N#Cc1c[nH]c2c(C(=O)c3ccc(Nc4ccnc(Nc5ccc(C(=O)c6cccc7c(C#N)c[nH]c67)cc5)n4)cc3)cccc12	490
O=C(c1c[nH]nc1Nc1nccc(Nc2cnc3ccccc3c2)n1)c1cccc2cc[nH]c12	630
O=C(c1ccc(Nc2ccnc(Nc3cc(-c4ccccc4)[nH]n3)n2)cc1)c1cccc2cc[nH]c12	10000
